These results are taken from publication doi:10.1101/2025.10.10.681657 (bioRxiv, 2025).

Entries after “also recorded” stand apart in the source; their conditions may differ.

Assay [1] relates to NHP2L1 (Snu13) and U4 5′ SL. Also noted: method as in PMID 28985478. The note with it: cited from earlier work.
Assay [2] concerns U4U6 RNA for SHAPE-MaP (T7 transcript of Template) (RNA, junction) GGGCCUUCGGGCCAAGGCCUUAUGCACGGGAAAUACGCAUAUCAGUGAGGAUUCGUCCGAGAUUGUGUUUUUGCUGGUGUAAAUCAGCAGUUCCCCUGCAUAAGGCUUCGAUCCGGUUCGCCGGAUCCAAAUCGGGCUUCGGUCCGGUUC
The assay is described as follows: SHAPE-MaP / deltaSHAPE (2A3). The note with it: KCl (3.3x folding buffer: 1023 mM); potassium phosphate pH 7.0, EDTA; 100 μM compound.

The subject of assay [3] is U4/U6 79-nt snRNA construct. Put plainly: SPR binding test with 79 nt RNA lacking the K-turn. Also noted: species or system yeast. The note with it: 79 nt RNA that disrupts the 5′ SL; until 50 μM. How it is done:
SPR experiments were carried out using an SPR optical biosensor (BIAcore 3000, Cytiva, USA) based on reported methods with minor modifications.[35] To avoid RNA degradation during long-time injections, the whole microfluidic system was washed by priming 50% RNase Zap buffer and RNase-free water one day before the experiments. Then, by using running buffer (1xPBS, pH7.4, 0.005% Tween 20, 5% DMSO) at a flow rate of 5 μL/min, the binding assays were performed. In brief, a CM5 chip surface coated with carboxylated dextran was activated by standard EDC/NHS amine-coupling protocol and then conjugated with streptavidin (200 ng/mL in 10 mM sodium acetate buffer, pH 4.5) for 30 min, resulting in 4000~6000 response units (RUs) signal. After streptavidin conjugation, the surface was deactivated (1 M ethanolamine, pH 8.5) for 10 min and regenerated (10 mM NaOH) for 2 min to remove unbound SA. […]
To detect binding between small molecules and U4/U6 snRNA, a 50 μL compound solution was applied to both Fc1 and Fc2 channels simultaneously at a higher flow rate (25 μL/min). […] The KD value was then calculated by fitting the binding curves based on a steady-state model in BIAevaluation 4.0 software and plotted in GraphPad Prism 9.
On the technique in general: In SPR one partner is held on a chip, and binding of the other changes the refractive index at the surface.

For assay [4], the target named is U4/U6 snRNA construct (92 nt). The assay is described as follows: SPR binding to U4/U6 snRNA construct (92 nt). Also on record: species or system yeast. As to conditions: 92 nt RNA, steady-state fit; >100 = signal appeared at 100 μM but failed to fit. How it is done: SPR experiments were carried out using an SPR optical biosensor (BIAcore 3000, Cytiva, USA) based on reported methods with minor modifications.[35] To avoid RNA degradation during long-time injections, the whole microfluidic system was washed by priming 50% RNase Zap buffer and RNase-free water one day before the experiments. Then, by using running buffer (1xPBS, pH7.4, 0.005% Tween 20, 5% DMSO) at a flow rate of 5 μL/min, the binding assays were performed. In brief, a CM5 chip surface coated with carboxylated dextran was activated by standard EDC/NHS amine-coupling protocol and then conjugated with streptavidin (200 ng/mL in 10 mM sodium acetate buffer, pH 4.5) for 30 min, resulting in 4000~6000 response units (RUs) signal. After streptavidin conjugation, the surface was deactivated (1 M ethanolamine, pH 8.5) for 10 min and regenerated (10 mM NaOH) for 2 min to remove unbound SA. Then, the folded U4/U6 RNA with biotin-label at 5′ end was prepared (according to the above-mentioned method) at 5 μM and injected in flow-cell (Fc) 2 for 30 min while Fc1 was kept blank as a reference. Then, the system continued flowing the running buffer until the baseline was stable before future steps.
To detect binding between small molecules and U4/U6 snRNA, a 50 μL compound solution was applied to both Fc1 and Fc2 channels simultaneously at a higher flow rate (25 μL/min). The binding curve contains 120 s association and 200 s dissociation. A pulse of 10 mM NaOH injection was used for regeneration if needed. To measure the dissociation constant (KD), titrations of compound solutions with a serial dilution were applied. The KD value was then calculated by fitting the binding curves based on a steady-state model in BIAevaluation 4.0 software and plotted in GraphPad Prism 9.

For assay [5], the system named is U4/U6 snRNA construct 79 nt (No. 2, K-turn disrupted) (RNA, junction) GGCCUUAUGCACGGGAAAUACGCAUAUCGUAAGAUUGUGUUUUUGCUGGUGUAAAUCAGCAGUUCCCCUGCAUAAGGCU
The assay is described as follows: SPR. The note with it: 1x PBS; pH 7.4, 0.005% Tween 20, 5% DMSO; no binding up to 50 μM.

Assay [6] has as its system U4/U6 snRNA construct 92 nt (WT, No. 1), Cy5 (RNA, junction) GGCCUUAUGCACGGGAAAUACGCAUAUCAGUGAGGAUUCGUCCGAGAUUGUGUUUUUGCUGGUGUAAAUCAGCAGUUCCCCUGCAUAAGGCU
The assay is described as follows: MST (T-jump, 1:1 fit). As to conditions: running buffer, 5% DMSO, 50 nM RNA.

Assay [7] has the same test system. The assay is described as follows: EMSA. The note with it: 150 mM NaCl; 20 mM Tris-Cl pH 7.6, 0.1% Triton X-100, 2 mM DTT; 1 μM Snu13 protein displaced. For orientation: In EMSA bound probe runs differently from free probe, usually more slowly.
The test system of assay [8] is Snu13-U4/U6 RNA interaction. The assay is described as follows: EMSA of Snu13-U4/U6 RNA complex. Format: biochemical, yeast. As to conditions: 1 μM Snu13, compound 0.5 to 20 μM, gel band quantification; read-out: IC50 (RNA-protein complex formation). How it is done:
The 5′-end Cy5 labeled U4U6 RNA in 11.25 mM KPO4 pH 7.0, 310 mM KCl, and 5 mM EDTA was folded based on the above-mentioned method. The folded RNA was incubated with 1 μM Snu13 protein in the buffer containing 20 mM Tris-Cl pH 7.6, 150 mM NaCl, and 0.1% of Triton X-100 and 2 mM DTT for 30 min at room temperature. Then the compound (0.5 μM to 20 μM) was added to the samples and incubated at room temperature for 15 min. The samples were loaded into the 8% native PAGE gel and visualized by AMERSHAM TYPHOON Biomolecular Imager. Image J software was used for image processing. RNA-protein complex formation in the presence of increasing concentration of compound 22 was calculated by quantifying the higher molecular weight band intensity and normalized to the band intensity of RNA-protein complex in the absence of compound. Values reported are the average of three replicates. The half-maximal inhibitory concentration (IC50) was determined by fitting the data in inhibitor dose–response curves in GraphPad Prism 9. Quantitative data were presented as the mean ± SEM.

Assay [9] deals with Snu13-U4/U6 RNA interaction. Put plainly: KD shift assay by MST (protein-RNA inhibition). The class given is binding, yeast. As to conditions: 10 μM compound vs no compound. How it is done:
(§1) MST experiments were conducted using a Monolith NT.115 system (NanoTemper, Germany) as described previously.[36] 5′-Cy5-labeled U4/U6 RNA was folded as above-mentioned and diluted to 100 nM (2x) in a working buffer. For RNA-small molecule interactions, compounds were prepared in the running buffer (with 10% DMSO) and mixed with RNA in a 1:1 (v/v) ratio, resulting in 50 nM RNA and 5% DMSO in the final solution. Then, MST scanning was performed in triplicate using a red LED channel to obtain the binding signals. Binding affinity (KD) was determined by fitting the concentration-dependent curve in the T-jump region according to the 1:1 Langmuir binding model (MO.Affinity Analysis v2.3).
For the protein-RNA inhibition assay, Snu13 protein was prepared in the running buffer (10 mM HEPES, pH 7.4, 150 mM NaCl, and 0.005% Tween 20) at different concentrations ranging from 0 μM to 5 μM. Meanwhile, a compound at a designated concentration was added to the annealed RNA solution. Then, the test solutions were prepared by 1:1 (v/v) mixing the protein and RNA-small molecule samples, followed by the standard MST procedure mentioned above.

The subject of assay [10] is U4/U6 snRNA construct 92 nt (WT, No. 1) (RNA, junction) GGCCUUAUGCACGGGAAAUACGCAUAUCAGUGAGGAUUCGUCCGAGAUUGUGUUUUUGCUGGUGUAAAUCAGCAGUUCCCCUGCAUAAGGCU
The assay is described as follows: SPR steady state. The note with it: 1x PBS; pH 7.4, 0.005% Tween 20, 5% DMSO.

Assay [11] concerns the target U4/U6 92-nt RNA construct. The assay is described as follows: MST binding to U4/U6 92-nt RNA. Also on record: species or system yeast. As to conditions: 50 nM Cy5-labeled 92-nt RNA. How it is done:
as §1

On to `CC[C@@]1(O)C(=O)OCc2c1cc1n(c2=O)Cc2cc3c(CN(C)C)c(O)ccc3nc2-1` [topotecan], for which the “effect on NHP2L1-U4 5′ SL interaction” value in [1] is reported as “inhibit the interaction; also recorded: disrupts the binding”.
A word on the Kd: it is the constant that tells how readily two partners part at equilibrium. As a reminder, the KD is a measure of binding affinity in units of concentration. Low values mean tighter binding, high ones weaker binding. Broadly, the IC50 is the concentration that inhibits the measured activity by half. As to `CN(C)CCNc1nnc(-c2nc(-c3ccc(F)cc3)no2)c2ccccc12` [Compound 22], the binding result in assay [2] is reported as “yes”; in assay [5], “no”. In addition, in [3], the “SPR binding to 79 nt RNA” value was “did not show any binding”. Further, the values for the Kd in [4] and in assay [11] were 3.9 ± 2.2 µM and 9.1 ± 0.6 µM, respectively. The dissociation constant (KD) is 9.1 ± 0.6 µM in assay [6] and 3.9 ± 2.2 µM in assay [10]. Besides, the concentration for half-maximal inhibition (IC50) in [7] and in assay [8] was 3.2 ± 0.4 µM throughout. Further, the “fold weaker Snu13 affinity” value in assay [9] was found to be 13 fold.
